From patent US20210024455A1 (priority 2018, published 2021) come the findings set out here.

Each structure is given as a SMILES string.

The target in one test is T1, TRF2 (Homo sapiens, UniProt Q15554).
T1 sequence (Q15554 1-542): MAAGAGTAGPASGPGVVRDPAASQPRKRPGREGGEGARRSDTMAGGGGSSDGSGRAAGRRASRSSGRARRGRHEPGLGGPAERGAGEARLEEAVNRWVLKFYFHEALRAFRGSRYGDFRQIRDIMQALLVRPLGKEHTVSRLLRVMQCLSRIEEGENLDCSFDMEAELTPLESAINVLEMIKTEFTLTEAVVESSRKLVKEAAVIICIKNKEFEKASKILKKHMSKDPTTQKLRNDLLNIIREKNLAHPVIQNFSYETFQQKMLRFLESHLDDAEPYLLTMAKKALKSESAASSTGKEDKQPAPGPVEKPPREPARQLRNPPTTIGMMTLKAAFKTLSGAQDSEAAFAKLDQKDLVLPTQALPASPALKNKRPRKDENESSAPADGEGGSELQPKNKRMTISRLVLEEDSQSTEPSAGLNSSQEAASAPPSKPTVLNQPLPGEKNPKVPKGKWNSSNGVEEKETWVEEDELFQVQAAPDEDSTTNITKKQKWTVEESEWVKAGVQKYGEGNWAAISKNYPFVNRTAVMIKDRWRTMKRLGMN
Nature of the test: biochemical. Type of test: binding. The following applies: read-out: inhibition rate (%) in DSE FRET assay.

In another test the test system is HeLa1.2.11 cells. Nature of the test: cells. Type of test: cell-based. Conditions: read-out: IC50, suppressing proliferation of HeLa1.2.11 cells.

For orientation: inhibition means the drop in the measured response relative to a control, in per cent. Turning to `O=[N+]([O-])c1cc([N+](=O)[O-])c(Oc2ccccc2N(c2ccccc2)c2ccccc2)c([N+](=O)[O-])c1` [compound 144], the inhibition at 50 µM on TRF2 worked out at 38.3%. Further, the IC50 in the test on HeLa1.2.11 cells turned out to be 31 µM.

For `Cc1ccc(N(c2ccccc2)c2ccccc2Oc2c([N+](=O)[O-])cc([N+](=O)[O-])cc2[N+](=O)[O-])cc1` [compound 145], the inhibition at 50 µM on TRF2 turned out to be 38.7%. The IC50 in the test on HeLa1.2.11 cells came to 26 µM.

On to `CC(=O)c1ccc(N(c2ccccc2)c2ccccc2Oc2c([N+](=O)[O-])cc([N+](=O)[O-])cc2[N+](=O)[O-])cc1` [compound 168], for which, on TRF2, the inhibition at 50 µM was 25.5%. In the test with HeLa1.2.11 cells, the IC50 was 43 µM.

With `CC(=O)c1ccc(N(c2ccc(C(C)=O)cc2)c2ccccc2Oc2c([N+](=O)[O-])cc([N+](=O)[O-])cc2[N+](=O)[O-])cc1` [compound 171], the inhibition at 50 µM on TRF2 is 24.7%. Further, the IC50 in the test on HeLa1.2.11 cells is 48 µM.

Turning to `CC(C)(C)c1ccc(Oc2c([N+](=O)[O-])cc([N+](=O)[O-])cc2[N+](=O)[O-])c(N(c2ccccc2)c2ccccc2)c1` [compound 192], on TRF2, the inhibition at 50 µM amounted to 33.6%. Also, in the test on HeLa1.2.11 cells, the IC50 came to 24 µM.

Take `CC(=O)c1ccc(N(c2ccccc2)c2cc(C(C)(C)C)ccc2Oc2c([N+](=O)[O-])cc([N+](=O)[O-])cc2[N+](=O)[O-])cc1` [compound 201]: the inhibition at 50 µM on TRF2 was found to be 23%. Moreover, the IC50 in the test on HeLa1.2.11 cells was 15 µM.

Turning to `COc1ccc(N(c2ccccc2)c2ccccc2Oc2c([N+](=O)[O-])cc([N+](=O)[O-])cc2[N+](=O)[O-])cc1` [compound 204], the inhibition at 50 µM on TRF2 was 20.4%. For the same compound, the IC50 in the test with HeLa1.2.11 cells came to 20 µM.

As to `CC(=O)c1ccc(N(c2ccc(C)cc2)c2ccccc2Oc2c([N+](=O)[O-])cc([N+](=O)[O-])cc2[N+](=O)[O-])cc1` [compound 225], the inhibition at 50 µM at TRF2 was 36.9%. Further, the IC50 in the test on HeLa1.2.11 cells was found to be 28 µM.

Consider `CC(=O)c1ccc(N(c2ccc(C(C)(C)C)cc2)c2ccccc2Oc2c([N+](=O)[O-])cc([N+](=O)[O-])cc2[N+](=O)[O-])cc1` [compound 227], for which the inhibition at 50 µM at TRF2 is 18.4%. Further, the IC50 with HeLa1.2.11 cells came to 18 µM.

As to `Cc1cc([N+](=O)[O-])cc([N+](=O)[O-])c1Oc1ccccc1N(c1ccccc1)c1ccc(C(C)(C)C)cc1` [compound 228], on TRF2, the inhibition at 50 µM is 11.8%. Moreover, the IC50 with HeLa1.2.11 cells is 20 µM.

As to `COc1ccc(N(c2ccccc2)c2cc(C(C)(C)C)ccc2Oc2c([N+](=O)[O-])cc([N+](=O)[O-])cc2[N+](=O)[O-])cc1` [compound #207], the inhibition at 50 µM at TRF2 turned out to be 23.7%. In addition, the IC50 in the test on HeLa1.2.11 cells was found to be 19 µM.
